Like-named read-outs stand apart in the source and are kept apart here.

This passage reports IC50, Purity and CC50 results from PMC11298430, “Synthesis and In vitro evaluation of bichalcones as novel anti-toxoplasma agents” (Frontiers in Chemistry, 2024).

Data set [1] deals with Toxoplasma gondii ME49 tachyzoites. Description: Toxoplasma gondii in vitro inhibition assay (3H-uracil incorporation). Type of data set: cell-based.
Data set [2] in a line: Stability experiments (reverse phase HPLC purity). Type of data set: physicochemical. As to the method:
Table S3: Purity results of the stability experiments over a varying time span at different
Entry Variations Time Purity [%]
Table S4: Reverse Phase HPLC chromatogram of bichalcone 2ab (rac) in DMSO stock solution […]
Table S5: Reverse Phase HPLC chromatogram of bichalcone 2ab (rac) in DMSO stock solution
Table S6: Reverse Phase HPLC chromatogram of bichalcone 2ab (rac) in DMSO at -78 °C for […]

Another data set can be described thus: MTT cytotoxicity assay. The class given is cell-based. The settings on record: human. As to the method: (§1) The MTT [3-(4, 5-dimethylthiazole-2-yl)-2, 5-diphenyltetrazolium bromide] reduction assay ([Mosmann, 1983]) was used to quantify the cytotoxic effects of the examined chalcones and bichalcones on the host cells. To avoid edge effects, only the inner 60 wells of each plate were used. Briefly, 5 × 10^4 Hs27 cells per well were cultured in 96-well microtiter plates in Iscove’s modified Dulbecco’s medium (IMDM, Gibco–Thermo Fisher Scientific, Braunschweig, Germany, #12440053) with a volume of 100 µL per well and incubated overnight at 37°C until confluence. Different concentrations of the compounds (ranging from 200 μM to 0.09 µM) were then added to the Hs27 cells. Controls included untreated Hs27 cells treated with DMSO, and cells treated with staurosporine (0.031, 0.062, 0.125, 0.25, 0.5, 1 µM) (Merck, Darmstadt, Germany, #S4400), a natural product known for its potent activity as apoptosis inducer ([Belmokhtar et al., 2001]). After 24 h of incubation, the culture media were replaced with 100 µL of Dulbecco’s Modified Eagle Medium (DMEM) medium without red phenol (Gibco-Thermo Fisher Scientific, Braunschweig, Germany, #21041025) plus 10% heat-inactivated fetal bovine serum (FBS Standard, South America origin, fetal bovine serum, […] sterile filtered, PAN-Biotech, Aidenbach, Germany, #P30-3,306), and […] 2-mercaptoethanol (Gibco-Thermo Fisher Scientific, Braunschweig, Germany, #21985023). The experiment was performed following the manufacturer’s instructions (CyQuant MTT Cell Viability Assay Kit, Thermo Fisher Scientific, Braunschweig, Germany, #V-13154). Optical density (O.D.) was measured at 570 nm using a microplate reader (TECAN Sunrise, Männedorf, Switzerland). The half-maximal cytotoxic concentration (CC50) values of each compound against Hs27 cells relative to DMSO-treated samples were determined using GraphPad PRISM™ statistical software (version 9.5.1; San Diego, CA). In addition, the selectivity index (SI) of each compound was calculated from the ratio of CC50/IC50.
A general note: Formazan colour is commonly taken as a measure of viable cells.

The subject of the next data set is human fibroblasts Hs27. As to the kind of experiment: MTT cytotoxicity assay. Type of data set: cell-based. The settings on record: 24 h. How it is done:
as §1

The next data set deals with Toxoplasma gondii. Set-up: method as in Touquet et al., 2018. The settings on record: literature value ref Touquet et al., 2018; cited from earlier work.
Where [3] appears, read: Toxoplasma gondii, HS27, T. gondii ME49 tachyzoites in Hs27 host cells, 3H-uracil incorporation, n = 6, read-out: IC50 ± S.D.
The mark [4] stands for this setting: T. gondii ME49 tachyzoites in Hs27 host cells, 3H-uracil incorporation, n = 6, read-out: IC50 ± S.D.
Setting [5] is: Toxoplasma gondii, HS27, read-out: IC50 ± S.D.
Where [6] appears, read: Hs27 cells, MTT, 24 h, n = 6, read-out: CC50.

Usually IC50 stands for the concentration needed to halve the response being measured. Broadly, the CC50 is the concentration that lowers cell viability or growth by half. On to `COc1cc(C)c(-c2c(C)cc(OC)c(C(=O)/C=C/c3ccccc3)c2O)c(O)c1C(=O)/C=C/c1ccccc1` (racemic) [2ab], for which the IC50 in data set [1] (setting [3]) was determined as 0.11 ± 0.02 µM. The Purity in data set [2] (22 °C, DMSO, 24 h) is 75.9%; in data set [2] (40 °C, DMSO, 24 h), 76.6%; in data set [2] (40 °C, MeOH, 24 h), 89.7%; in data set [2] (40 °C, MeOH, KOH, 24 h) it was 35.6%; in data set [2] (-20 °C, DMSO, 6 months) it was 96.2%. Moreover, in “MTT cytotoxicity assay”, the CC50 at 24 h was greater than 200 µM.
As to `COc1cc(C)c(-c2c(C)cc(OC)c(C(=O)/C=C/c3ccccc3)c2O)c(O)c1C(=O)/C=C/c1ccccc1` (single isomer, unassigned) [(R a)-2ab], the half-maximal inhibitory concentration (IC50) in data set [1] (setting [4]) came to 0.1 ± 0.01 µM. In addition, in the data set on human fibroblasts Hs27, the CC50 is greater than 200 µM.
For the molecule `COc1cc(C)c(-c2c(C)cc(OC)c(C(=O)/C=C/c3ccccc3)c2O)c(O)c1C(=O)/C=C/c1ccccc1` (single isomer, unassigned) [(S a)-2ab], the IC50 in data set [1] (setting [4]) stood at 0.31 ± 0.03 µM. The molecule further came in with a CC50 at 24 h in the data set “MTT cytotoxicity assay” greater than 200 µM.
Take `COc1ccc(/C=C/C(=O)c2c(O)cc(C)cc2OC)cc1` [1aa]: the concentration for half-maximal inhibition (IC50) in data set [1] (setting [3]) amounted to 21.8 ± 3.07 µM. In the data set “MTT cytotoxicity assay”, it took 180 ± 32 µM to reach half-maximal cytotoxicity (CC50 at 24 h).
For the molecule `COc1cc(C)cc(O)c1C(=O)/C=C/c1ccccc1` [1ab], in data set [1] (setting [3]), the IC50 was found to be 14.1 ± 2.62 µM. In “MTT cytotoxicity assay”, this molecule displayed a CC50 at 24 h of 133 ± 28 µM.
For `COc1cc(C)cc(O)c1C(=O)/C=C/c1ccc(N(C)C)cc1` [1ac], in that order: greater than 50 µM and greater than 200 µM.
The like results for `COc1cc(C)cc(O)c1C(=O)/C=C/c1ccc(C(F)(F)F)cc1` [1ad] were, in that order, greater than 50 µM and greater than 200 µM.
The like results for `COc1cc(C)cc(O)c1C(=O)/C=C/c1ccc(Br)cc1` [1ae] were, in that order, 10.6 ± 1.05 µM and 190 ± 99 µM.
As for `COc1cc(C)cc(O)c1C(=O)/C=C/c1cccc(Br)c1` [1af], the IC50 in data set [1] (setting [3]) amounted to 6.18 ± 0.55 µM. Further, the CC50 at 24 h in “MTT cytotoxicity assay” amounted to 134 ± 78 µM.
The like results for `COc1cc(C)cc(O)c1C(=O)/C=C/c1ccccc1Br` [1ag] were, in that order, greater than 50 µM and greater than 200 µM.
For `COc1ccc(/C=C/C(=O)c2c(O)cc(OC)cc2OC)cc1` [1ba], in that order: 8.08 ± 2.06 µM and greater than 200 µM.
For `COc1cc(O)c(C(=O)/C=C/c2ccccc2)c(OC)c1` [1bb], in that order: 6.01 ± 2.54 µM and 87.8 ± 16 µM.
Consider `COc1cc(O)c(C(=O)/C=C/c2ccc(N(C)C)cc2)c(OC)c1` [1bc], for which the IC50 in data set [1] (setting [5]) is greater than 50 µM. The CC50 at 24 h in “MTT cytotoxicity assay” (setting [6]) is greater than 200 µM.
For `COc1cc(O)c(C(=O)/C=C/c2ccc(C(F)(F)F)cc2)c(OC)c1` [1bd], the IC50 in data set [1] (setting [3]) is greater than 50 µM. The cytotoxic concentration (CC50) at 24 h in “MTT cytotoxicity assay” was greater than 200 µM.
Consider `COc1cc(O)c(C(=O)/C=C/c2ccc(Br)cc2)c(OC)c1` [1be], for which the IC50 in data set [1] (setting [5]) is greater than 50 µM. Besides, in “MTT cytotoxicity assay” (setting [6]), the CC50 at 24 h is greater than 200 µM.
For `COc1cc(O)c(C(=O)/C=C/c2cccc(Br)c2)c(OC)c1` [1bf], the IC50 in data set [1] (setting [3]) was found to be 11.3 ± 0.61 µM. Besides, the CC50 at 24 h in the data set “MTT cytotoxicity assay” is greater than 200 µM.
On to `COc1cc(O)c(C(=O)/C=C/c2ccccc2Br)c(OC)c1` [1bg], for which, in data set [1] (setting [5]), the half-maximal inhibitory concentration (IC50) was 4.46 ± 0.46 µM. Also, the half-maximal cytotoxic concentration (CC50) at 24 h in “MTT cytotoxicity assay” (setting [6]) is 86.5 ± 72 µM.
Regarding `COc1ccc(/C=C/C(=O)c2c(OC)cc(C)c(-c3c(C)cc(OC)c(C(=O)/C=C/c4ccc(OC)cc4)c3O)c2O)cc1` [2aa], the IC50 in data set [1] (setting [3]) is 6.63 ± 0.77 µM. The same molecule yielded a 50% cytotoxic concentration (CC50) at 24 h in the data set “MTT cytotoxicity assay” greater than 200 µM.
For `COc1cc(C)c(-c2c(C)cc(OC)c(C(=O)/C=C/c3ccc(N(C)C)cc3)c2O)c(O)c1C(=O)/C=C/c1ccc(N(C)C)cc1` [2ac], in that order: greater than 50 µM and greater than 200 µM.
For the molecule `COc1cc(C)c(-c2c(C)cc(OC)c(C(=O)/C=C/c3ccc(C(F)(F)F)cc3)c2O)c(O)c1C(=O)/C=C/c1ccc(C(F)(F)F)cc1` [2ad], in data set [1] (setting [3]), the IC50 worked out at 24.7 ± 3.52 µM. Further, the CC50 at 24 h in “MTT cytotoxicity assay” was greater than 200 µM.
For `COc1cc(C)c(-c2c(C)cc(OC)c(C(=O)/C=C/c3ccc(Br)cc3)c2O)c(O)c1C(=O)/C=C/c1ccc(Br)cc1` [2ae], in that order: 7.91 ± 1.14 µM and greater than 200 µM.
For `COc1cc(C)c(-c2c(C)cc(OC)c(C(=O)/C=C/c3cccc(Br)c3)c2O)c(O)c1C(=O)/C=C/c1cccc(Br)c1` [2af], in that order: 30.5 ± 7.21 µM and greater than 200 µM.
The like results for `COc1cc(C)c(-c2c(C)cc(OC)c(C(=O)/C=C/c3ccccc3Br)c2O)c(O)c1C(=O)/C=C/c1ccccc1Br` [2ag] were, in that order, 18.44 ± 0.1 µM and greater than 200 µM.
On to `COc1ccc(/C=C/C(=O)c2c(OC)cc(OC)c(-c3c(OC)cc(OC)c(C(=O)/C=C/c4ccc(OC)cc4)c3O)c2O)cc1` [2ba], for which the IC50 in data set [1] (setting [3]) was greater than 50 µM. Also, in “MTT cytotoxicity assay”, the CC50 at 24 h is greater than 200 µM.
For `COc1cc(OC)c(-c2c(OC)cc(OC)c(C(=O)/C=C/c3ccccc3)c2O)c(O)c1C(=O)/C=C/c1ccccc1` [2bb], in that order: 9.75 ± 1.95 µM and greater than 200 µM.
Turning to `COc1cc(OC)c(-c2c(OC)cc(OC)c(C(=O)/C=C/c3ccc(N(C)C)cc3)c2O)c(O)c1C(=O)/C=C/c1ccc(N(C)C)cc1` [2bc], the IC50 in data set [1] (setting [3]) is greater than 50 µM. In “MTT cytotoxicity assay”, this molecule showed a CC50 at 24 h greater than 200 µM.
For `COc1cc(OC)c(-c2c(OC)cc(OC)c(C(=O)/C=C/c3ccc(C(F)(F)F)cc3)c2O)c(O)c1C(=O)/C=C/c1ccc(C(F)(F)F)cc1` [2bd], in that order: 3.09 ± 0.15 µM and greater than 200 µM.
For `COc1cc(OC)c(-c2c(OC)cc(OC)c(C(=O)/C=C/c3ccc(Br)cc3)c2O)c(O)c1C(=O)/C=C/c1ccc(Br)cc1` [2be], in that order: 8.55 ± 1.28 µM and greater than 200 µM.
Consider `COc1cc(OC)c(-c2c(OC)cc(OC)c(C(=O)/C=C/c3cccc(Br)c3)c2O)c(O)c1C(=O)/C=C/c1cccc(Br)c1` [2bf], for which, in data set [1] (setting [3]), the 50% inhibitory concentration (IC50) is 12.4 ± 2.09 µM. In addition, the CC50 at 24 h in “MTT cytotoxicity assay” was greater than 200 µM.
The like results for `COc1cc(OC)c(-c2c(OC)cc(OC)c(C(=O)/C=C/c3ccccc3Br)c2O)c(O)c1C(=O)/C=C/c1ccccc1Br` [2bg] were, in that order, greater than 50 µM and greater than 200 µM.
For `CCc1nc(N)nc(N)c1-c1ccc(Cl)cc1` [PYR, pyrimethamine, reference compound], the IC50 was 0.22 ± 0.05 µM in data set [1] (setting [3]) and 0.4 µM in the data set with Toxoplasma gondii. This molecule also gave a CC50 at 24 h in the data set “MTT cytotoxicity assay” greater than 100 µM.
